Data as given in ChEMBL document CHEMBL1201862, “PubChem BioAssay data set” (2004).
Activity calls are given as the source filed them.

Experiments:
[1] = molecular target: T1, Long-chain-fatty-acid--AMP ligase FadD28 (Mycobacterium tuberculosis, UniProt P9WQ59); assay: Fluorescence polarization aasay to screen for inhibitors that compete for the binding of FadD28 to a bisubstrate Measured in Biochemical System Using Plate Reader - 2147-01_Inhibitor_Dose_CherryPick_Activity.; format: functional, Mycobacterium tuberculosis H37Rv
T1 sequence (P9WQ59 whole entry): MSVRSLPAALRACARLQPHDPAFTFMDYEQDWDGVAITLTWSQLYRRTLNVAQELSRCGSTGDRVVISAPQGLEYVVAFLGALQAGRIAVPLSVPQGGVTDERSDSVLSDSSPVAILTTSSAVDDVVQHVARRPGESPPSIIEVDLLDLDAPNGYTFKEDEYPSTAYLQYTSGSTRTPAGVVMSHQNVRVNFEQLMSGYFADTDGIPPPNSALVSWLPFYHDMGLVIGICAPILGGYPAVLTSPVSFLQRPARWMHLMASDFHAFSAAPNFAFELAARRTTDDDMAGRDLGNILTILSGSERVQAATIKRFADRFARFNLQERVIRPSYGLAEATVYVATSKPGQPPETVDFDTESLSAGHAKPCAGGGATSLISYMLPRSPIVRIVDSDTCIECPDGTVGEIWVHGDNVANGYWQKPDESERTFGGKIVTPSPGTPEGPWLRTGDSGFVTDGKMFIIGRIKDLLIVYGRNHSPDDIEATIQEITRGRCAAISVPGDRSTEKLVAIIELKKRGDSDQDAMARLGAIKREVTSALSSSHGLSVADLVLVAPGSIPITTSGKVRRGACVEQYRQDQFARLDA

[2] = OVCAR8 cell viability loss – plate reader, dry powder samples, PAX8 project, dose response (AID 743197); format: functional, cell-based; details: OVCAR-8
[3] = general cell-killing toxicity readout – plate reader, dry powder samples, cytotoxicity control for PAX8 inhibitor project, dose response (AID 743021); format: functional, cell-based
[4] = OVCAR-3 cell viability loss – plate reader, dry powder samples, PAX8 inhibitor project, dose response (AID 743044); format: functional, cell-based
Paired box protein Pax-8 = Paired box protein Pax-8 (Homo sapiens, UniProt Q06710); assay: PAX8 transcriptional activity inhibition in RMG-I – RMG-I cells, luciferase, cherry-pick, dose response (AID 687027); format: functional, cell-based;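 further: luciferase reporter driven by Pax8 target thyroperoxidase promoter measured by SteadyGlo luminescence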
Chain of Paired box protein Pax-8 (Q06710 whole entry): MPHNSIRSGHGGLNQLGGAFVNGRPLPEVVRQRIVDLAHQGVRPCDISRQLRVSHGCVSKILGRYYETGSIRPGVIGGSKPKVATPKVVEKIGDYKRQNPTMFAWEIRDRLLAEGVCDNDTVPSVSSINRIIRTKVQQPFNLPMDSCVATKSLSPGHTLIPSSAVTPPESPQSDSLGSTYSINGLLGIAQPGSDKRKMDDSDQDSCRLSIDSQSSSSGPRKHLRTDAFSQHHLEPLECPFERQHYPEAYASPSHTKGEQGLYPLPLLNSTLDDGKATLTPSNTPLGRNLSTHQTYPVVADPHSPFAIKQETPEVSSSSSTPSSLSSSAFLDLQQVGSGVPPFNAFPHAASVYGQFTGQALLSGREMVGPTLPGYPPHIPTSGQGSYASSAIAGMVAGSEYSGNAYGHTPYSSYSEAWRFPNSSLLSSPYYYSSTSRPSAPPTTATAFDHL

[5] = IGROV1 cell killing – plate reader, dry powder samples, PAX8 inhibitor project, dose response (AID 743043); format: functional, cell-based; details: IGROV-1
fMet-Leu-Phe receptor = molecular target: T2, fMet-Leu-Phe receptor (Homo sapiens, UniProt P21462); assay: formyl peptide receptor binders – dose response (AID 519); format: functional
T2 sequence (P21462 whole entry): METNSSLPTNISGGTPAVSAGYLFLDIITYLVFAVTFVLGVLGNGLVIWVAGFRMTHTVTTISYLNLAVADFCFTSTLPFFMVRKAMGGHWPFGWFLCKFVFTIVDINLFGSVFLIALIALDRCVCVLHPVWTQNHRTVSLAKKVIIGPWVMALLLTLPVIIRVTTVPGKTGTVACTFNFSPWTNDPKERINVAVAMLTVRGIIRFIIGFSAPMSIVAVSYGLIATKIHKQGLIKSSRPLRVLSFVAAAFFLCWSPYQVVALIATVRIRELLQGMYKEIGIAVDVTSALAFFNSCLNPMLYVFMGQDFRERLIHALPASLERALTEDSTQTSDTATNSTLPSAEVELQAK

[6] = viability loss of HPDE-C7K cells – cell-based, fluorescence, HTS, primary screen (AID 431); format: functional; details: Homo sapiens
[7] = HPDE-C7 pancreatic duct cell viability loss – fluorescence, HTS (AID 430); format: functional, cell-based; details: Homo sapiens
[8] = molecular target: Voltage-gated inwardly rectifying potassium channel KCNH2 (Homo sapiens, UniProt Q12809); assay: concentration-dependent hERG rescue from blockers – cell-based, thallium flux, dose response (AID 2121); format: ADME
Chain of Voltage-gated inwardly rectifying potassium channel KCNH2 (Q12809 whole entry): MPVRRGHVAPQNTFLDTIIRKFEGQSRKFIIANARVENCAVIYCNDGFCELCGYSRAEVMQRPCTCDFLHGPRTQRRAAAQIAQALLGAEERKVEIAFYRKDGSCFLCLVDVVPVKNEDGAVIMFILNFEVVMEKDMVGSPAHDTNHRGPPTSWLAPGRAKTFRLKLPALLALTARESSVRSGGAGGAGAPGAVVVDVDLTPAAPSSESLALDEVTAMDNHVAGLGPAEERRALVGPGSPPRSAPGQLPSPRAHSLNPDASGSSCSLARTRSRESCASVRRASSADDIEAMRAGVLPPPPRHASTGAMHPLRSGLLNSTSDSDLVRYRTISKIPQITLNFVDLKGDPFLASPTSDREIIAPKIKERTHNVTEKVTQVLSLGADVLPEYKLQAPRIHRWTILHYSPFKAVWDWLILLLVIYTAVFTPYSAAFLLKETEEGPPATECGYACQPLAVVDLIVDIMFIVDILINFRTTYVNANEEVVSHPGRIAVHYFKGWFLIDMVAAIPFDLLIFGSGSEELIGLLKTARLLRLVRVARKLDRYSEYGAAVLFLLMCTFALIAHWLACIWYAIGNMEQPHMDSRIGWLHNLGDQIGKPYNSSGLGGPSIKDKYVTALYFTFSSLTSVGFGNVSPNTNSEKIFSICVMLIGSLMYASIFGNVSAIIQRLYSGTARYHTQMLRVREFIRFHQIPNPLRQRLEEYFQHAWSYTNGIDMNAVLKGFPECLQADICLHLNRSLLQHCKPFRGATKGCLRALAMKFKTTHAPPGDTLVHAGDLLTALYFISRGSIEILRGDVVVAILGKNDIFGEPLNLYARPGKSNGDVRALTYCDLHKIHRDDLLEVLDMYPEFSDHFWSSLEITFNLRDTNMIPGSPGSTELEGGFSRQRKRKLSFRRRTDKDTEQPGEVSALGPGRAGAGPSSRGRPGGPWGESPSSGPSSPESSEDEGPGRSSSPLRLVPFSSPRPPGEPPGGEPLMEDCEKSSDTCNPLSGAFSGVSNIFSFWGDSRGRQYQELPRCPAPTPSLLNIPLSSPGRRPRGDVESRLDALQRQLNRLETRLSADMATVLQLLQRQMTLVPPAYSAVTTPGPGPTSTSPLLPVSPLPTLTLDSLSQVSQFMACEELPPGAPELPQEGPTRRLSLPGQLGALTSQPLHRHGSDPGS

SN12K1 = assay: cells; format: functional; details: Homo sapiens, SN12K1
P388/ADR = assay: cells; format: functional; details: Mus musculus
P388 = assay: cells; format: functional; details: Mus musculus, P388
[9] = HEK-293T cell viability reduction – luminescence, B-cell screen hits, cytotoxicity control for BCR NF-kB inhibitor project, dose response (AID 489021); format: functional, cell-based;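 further: HEK-293T cells carrying an NF-kB luciferase reporter; cells exposed to compound for about 14 hours before viability readout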
[10] = viability of PTEN-deleted HCT116 cells – cell-based, HCT116 PTEN knockout, dose response (AID 1047); format: functional;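 further: HCT116 colon tumor cells with PTEN knocked out; cells exposed to compound for 60 hours before readout; potency for loss of cell viability measured by luminescence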
[11] = viability of HCT116 lacking mutant beta-catenin – cell-based, human colon tumor, dose response (AID 1045); format: functional;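 further: HCT116 colon tumor cells with beta catenin knocked out; cells exposed to compound for 60 hours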
[12] = molecular target: T3, Small ubiquitin-related modifier 1 (Homo sapiens, UniProt P63165); assay: SUMO1 protein-protein binding blockers, potency – biochemical, FRET, dose response (AID 624383); format: functional; details: read-out: IC50_Mean
T3 sequence (P63165 whole entry): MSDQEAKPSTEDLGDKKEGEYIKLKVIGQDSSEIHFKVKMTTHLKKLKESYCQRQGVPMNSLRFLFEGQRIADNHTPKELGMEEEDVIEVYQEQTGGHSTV

[13] = molecular target: T3, Small ubiquitin-related modifier 1; assay: SUMO1 protein interaction blockers, potency – biochemical, fluorescence polarization, uHTS hits, dose response (AID 624382); format: functional; details: read-out: IC50_Mean
[14] = molecular target: T4, Oxysterols receptor LXR-beta (Homo sapiens, UniProt P55055); assay: LXR agonists, Gal4 luciferase reporter, dose response, counter-screen for ssDAF-12 agonist project, cell-based, luminescence, HEK293, S. stercoralis campaign (AID 720737); format: functional; details: read-out: IC50 (the source's name)
T4 sequence (P55055 whole entry): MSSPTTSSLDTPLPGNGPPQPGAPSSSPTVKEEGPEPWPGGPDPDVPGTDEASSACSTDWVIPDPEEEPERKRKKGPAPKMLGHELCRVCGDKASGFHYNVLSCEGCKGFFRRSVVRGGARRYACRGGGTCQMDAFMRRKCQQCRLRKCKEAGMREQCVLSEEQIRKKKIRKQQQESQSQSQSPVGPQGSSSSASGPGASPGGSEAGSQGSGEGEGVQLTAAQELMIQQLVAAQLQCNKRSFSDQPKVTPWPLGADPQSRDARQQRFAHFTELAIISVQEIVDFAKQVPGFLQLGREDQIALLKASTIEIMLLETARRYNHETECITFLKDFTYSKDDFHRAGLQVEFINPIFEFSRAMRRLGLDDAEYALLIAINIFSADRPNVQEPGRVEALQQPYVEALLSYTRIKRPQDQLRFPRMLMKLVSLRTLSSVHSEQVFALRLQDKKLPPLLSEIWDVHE

[15] = Luminescence-based cell-based high throughput dose response assay to identify activators of the DAF-12 from the parasite S. stercoralis (ssDAF-12).; format: functional
[16] = molecular target: 5-hydroxytryptamine receptor 5A (Homo sapiens, UniProt P47898); assay: Counterscreen for agonists of OPRM1-OPRD1 heterodimerization: luminescence-based cell-based high throughput dose response assay to identify agonists of 5-hydroxytryptamine (serotonin) 5A receptor (HTR5A). [Related pubchem assays (depositor defined):AID504326, AID504355, AID504692, AID504904, AID504905]; format: functional
[17] = molecular target: T5, Hepatocyte nuclear factor 4-alpha (Homo sapiens, UniProt P41235); format: functional, cell-based;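 further: biochemical luminescence-based dose-response counterscreen measuring inhibition of HNF4 dimerization, run alongside a screen for blockers of ABHD5–perilipin-5 interaction; split luciferase complementation of HNF4 fusion proteins in cell lysate measuring dimerization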
T5 sequence (P41235 whole entry): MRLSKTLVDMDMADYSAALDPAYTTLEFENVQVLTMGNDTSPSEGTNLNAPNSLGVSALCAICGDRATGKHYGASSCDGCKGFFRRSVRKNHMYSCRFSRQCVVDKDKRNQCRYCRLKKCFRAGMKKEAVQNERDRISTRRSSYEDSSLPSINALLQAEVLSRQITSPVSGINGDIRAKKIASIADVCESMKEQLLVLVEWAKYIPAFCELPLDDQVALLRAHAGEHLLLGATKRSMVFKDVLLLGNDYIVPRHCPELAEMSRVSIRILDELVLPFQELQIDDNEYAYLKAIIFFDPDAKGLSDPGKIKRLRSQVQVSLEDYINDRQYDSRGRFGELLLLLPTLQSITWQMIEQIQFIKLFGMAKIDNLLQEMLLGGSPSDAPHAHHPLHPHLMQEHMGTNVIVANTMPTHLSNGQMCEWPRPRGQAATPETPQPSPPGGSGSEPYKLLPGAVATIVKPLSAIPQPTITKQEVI

Fatty acid synthase [18] = molecular target: T6, Fatty acid synthase (Homo sapiens, UniProt P49327); assay: inhibition of human FAS-TE enzyme activity – biochemical, endpoint fluorescence intensity, uHTS hits, dose response (AID 624327); format: functional;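 further: fluorescence from hydrolysis of an O-methyl fluorescein acyl ester substrate by the enzyme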
T6 sequence (P49327 whole entry): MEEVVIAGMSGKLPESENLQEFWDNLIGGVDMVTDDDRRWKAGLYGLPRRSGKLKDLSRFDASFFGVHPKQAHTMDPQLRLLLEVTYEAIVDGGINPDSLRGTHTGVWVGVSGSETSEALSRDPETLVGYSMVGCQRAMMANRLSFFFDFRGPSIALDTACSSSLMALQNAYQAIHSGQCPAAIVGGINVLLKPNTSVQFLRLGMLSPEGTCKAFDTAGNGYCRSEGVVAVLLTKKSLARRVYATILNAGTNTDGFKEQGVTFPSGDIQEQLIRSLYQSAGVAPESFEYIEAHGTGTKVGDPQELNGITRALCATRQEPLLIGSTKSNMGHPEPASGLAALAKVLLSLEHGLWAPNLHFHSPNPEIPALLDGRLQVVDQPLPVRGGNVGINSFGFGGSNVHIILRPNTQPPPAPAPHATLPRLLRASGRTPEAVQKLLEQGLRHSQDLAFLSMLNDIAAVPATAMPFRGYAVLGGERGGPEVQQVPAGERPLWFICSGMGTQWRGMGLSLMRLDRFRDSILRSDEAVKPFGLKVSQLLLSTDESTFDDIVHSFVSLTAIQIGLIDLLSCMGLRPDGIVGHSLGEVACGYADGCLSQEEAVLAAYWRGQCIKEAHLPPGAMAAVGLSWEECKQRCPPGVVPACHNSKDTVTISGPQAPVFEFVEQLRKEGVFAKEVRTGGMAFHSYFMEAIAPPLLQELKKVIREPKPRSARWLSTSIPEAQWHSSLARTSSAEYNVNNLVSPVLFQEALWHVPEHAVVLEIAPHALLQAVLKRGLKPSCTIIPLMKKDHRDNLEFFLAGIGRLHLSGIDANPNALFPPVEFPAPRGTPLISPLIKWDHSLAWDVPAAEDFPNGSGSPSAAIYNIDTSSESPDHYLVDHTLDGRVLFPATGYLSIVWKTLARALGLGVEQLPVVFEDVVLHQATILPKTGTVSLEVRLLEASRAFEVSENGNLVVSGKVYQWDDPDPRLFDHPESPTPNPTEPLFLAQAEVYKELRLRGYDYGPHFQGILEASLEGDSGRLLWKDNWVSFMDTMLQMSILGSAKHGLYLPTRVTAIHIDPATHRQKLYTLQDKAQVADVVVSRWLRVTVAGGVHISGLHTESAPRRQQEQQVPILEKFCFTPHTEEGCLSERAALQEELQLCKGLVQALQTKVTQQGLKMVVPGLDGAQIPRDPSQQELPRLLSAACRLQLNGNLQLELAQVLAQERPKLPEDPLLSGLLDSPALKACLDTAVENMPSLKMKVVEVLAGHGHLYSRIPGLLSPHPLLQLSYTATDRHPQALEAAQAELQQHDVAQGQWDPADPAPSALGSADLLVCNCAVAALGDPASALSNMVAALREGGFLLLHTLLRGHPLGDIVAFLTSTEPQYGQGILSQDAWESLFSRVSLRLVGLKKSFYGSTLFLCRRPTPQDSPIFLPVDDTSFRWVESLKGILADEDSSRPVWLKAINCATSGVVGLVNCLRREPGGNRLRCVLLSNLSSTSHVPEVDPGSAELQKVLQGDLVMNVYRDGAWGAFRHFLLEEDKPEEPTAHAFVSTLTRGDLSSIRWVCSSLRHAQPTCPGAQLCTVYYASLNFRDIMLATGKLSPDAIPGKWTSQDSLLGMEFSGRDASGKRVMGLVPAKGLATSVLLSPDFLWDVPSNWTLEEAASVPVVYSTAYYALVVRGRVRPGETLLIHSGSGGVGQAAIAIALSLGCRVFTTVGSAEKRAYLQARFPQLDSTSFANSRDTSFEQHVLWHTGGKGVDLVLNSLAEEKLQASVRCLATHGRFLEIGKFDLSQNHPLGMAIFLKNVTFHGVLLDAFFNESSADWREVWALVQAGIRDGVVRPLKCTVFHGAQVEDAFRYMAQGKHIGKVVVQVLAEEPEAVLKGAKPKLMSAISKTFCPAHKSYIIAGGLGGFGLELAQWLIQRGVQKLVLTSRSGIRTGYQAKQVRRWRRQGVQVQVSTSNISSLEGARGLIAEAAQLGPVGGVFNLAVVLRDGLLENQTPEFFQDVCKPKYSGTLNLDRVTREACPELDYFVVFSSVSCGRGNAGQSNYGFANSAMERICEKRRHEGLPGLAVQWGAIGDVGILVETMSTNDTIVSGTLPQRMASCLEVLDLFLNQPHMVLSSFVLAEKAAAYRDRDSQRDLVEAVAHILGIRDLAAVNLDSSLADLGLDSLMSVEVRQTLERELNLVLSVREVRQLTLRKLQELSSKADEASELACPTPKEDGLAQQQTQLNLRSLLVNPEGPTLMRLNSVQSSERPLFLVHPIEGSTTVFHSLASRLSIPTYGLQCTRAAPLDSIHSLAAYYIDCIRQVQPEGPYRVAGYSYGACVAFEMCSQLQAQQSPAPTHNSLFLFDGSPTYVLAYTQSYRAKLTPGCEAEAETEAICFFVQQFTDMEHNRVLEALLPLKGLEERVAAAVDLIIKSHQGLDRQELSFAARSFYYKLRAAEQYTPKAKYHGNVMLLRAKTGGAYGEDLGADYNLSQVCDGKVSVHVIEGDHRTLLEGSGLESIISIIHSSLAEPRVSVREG

Mu-type opioid receptor = Mu-type opioid receptor (Homo sapiens, UniProt P35372); assay: (§1) Counterscreen for agonists of heterodimerization of the mu 1 (OPRM1) and delta 1 (OPRD1) opioid receptors: Luminescence-based cell-based high throughput dose response assay to identify agonists of OPRM1 homodimerization.; format: functional
Fatty acid synthase [19] = molecular target: T6, Fatty acid synthase; assay: inhibition of human FAS-TE enzyme activity – biochemical, kinetic fluorescence intensity, dose response (AID 624326); format: functional;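 further: rate of fluorescence rise from hydrolysis of a fluorogenic O-methyl fluorescein ester substrate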
[20] = molecular target: Photoreceptor-specific nuclear receptor (Homo sapiens, UniProt Q9Y5X4); format: functional, cell-based;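 further: CHO-S cells with Gal4-NCOR and VP16-NR2E3 two-hybrid luciferase reporter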
[21] = molecular target: Delta-type opioid receptor (Homo sapiens, UniProt P41143); assay: as §1, with “of OPRD1” for “of OPRM1”, “homodimerization. [Related pubchem assays (depositor defined):AID504326, AID504355, AID504692, AID504904, AID504905]” for “homodimerization.”; format: functional
Chain of Delta-type opioid receptor (P41143 whole entry): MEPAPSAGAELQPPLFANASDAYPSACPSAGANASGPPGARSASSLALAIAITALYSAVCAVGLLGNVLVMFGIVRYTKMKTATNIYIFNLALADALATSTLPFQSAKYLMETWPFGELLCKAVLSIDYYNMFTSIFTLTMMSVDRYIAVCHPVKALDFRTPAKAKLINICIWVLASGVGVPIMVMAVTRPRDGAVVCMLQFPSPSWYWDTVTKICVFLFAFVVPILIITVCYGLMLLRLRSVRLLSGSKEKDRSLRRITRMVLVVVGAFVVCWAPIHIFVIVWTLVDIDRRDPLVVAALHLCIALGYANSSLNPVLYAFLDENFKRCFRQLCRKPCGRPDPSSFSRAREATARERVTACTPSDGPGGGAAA

[22] = molecular target: E3 ubiquitin-protein ligase Mdm2 (Homo sapiens, UniProt Q00987); assay: MDM2-luc reporter signal enhancers, multi-concentration potency testing, MDM2 ubiquitin-protein ligase inhibitor program, whole-cell format, luminescence detection, 384-well microplate (AID 1394); format: functional;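 further: MDM2 E3 inhibitors raise luminescence so EC50 is for signal enhancement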
Chain of E3 ubiquitin-protein ligase Mdm2 (Q00987 whole entry): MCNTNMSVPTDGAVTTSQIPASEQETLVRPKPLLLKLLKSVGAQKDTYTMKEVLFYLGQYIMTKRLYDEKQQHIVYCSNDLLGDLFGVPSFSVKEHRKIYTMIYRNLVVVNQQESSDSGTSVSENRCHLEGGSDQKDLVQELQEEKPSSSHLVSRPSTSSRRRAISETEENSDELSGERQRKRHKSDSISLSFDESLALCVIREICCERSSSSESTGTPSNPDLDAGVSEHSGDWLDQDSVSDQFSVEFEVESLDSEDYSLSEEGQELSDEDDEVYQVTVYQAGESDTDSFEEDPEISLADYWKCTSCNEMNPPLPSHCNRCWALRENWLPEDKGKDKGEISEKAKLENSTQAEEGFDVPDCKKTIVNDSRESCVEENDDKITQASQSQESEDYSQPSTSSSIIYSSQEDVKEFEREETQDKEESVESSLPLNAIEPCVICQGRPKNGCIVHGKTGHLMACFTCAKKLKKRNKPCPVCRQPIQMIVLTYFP

cells [23] = format: functional, cell-based
cells [24] = format: functional, cell-based; remark: listed apart in the source

For `CC(=O)N1CCN(Cc2nc3cc(NC(=O)NC4CCCCC4)ccc3n2C)CC1`, the AC50 [1] was 81 µM (active).

For `C[C@@H]1CCCCO[C@H](CN(C)C(=O)Nc2cccc3ccccc23)[C@H](C)CN([C@@H](C)CO)C(=O)c2cc(NS(=O)(=O)c3ccc(Cl)cc3)ccc2O1`, the AC50 [2] was 59.6 µM (active), the AC50 [3] was 55.2 µM (active) and the AC50 [4] was 16.8 µM (active). The AC50 (Paired box protein Pax-8) was 5.39 µM (active) and the AC50 [5] was 51.8 µM (active).

In the case of `C=CCn1c(NC(=O)c2ccccc2)c(C#N)c2nc3ccccc3nc21`, the Ki (fMet-Leu-Phe receptor) is reported as > 66.7 µM (inactive).

For `COC(=O)c1sc2nc(-c3ccccc3)nc(N3CCN(C)CC3)c2c1C`, the EC50 [6] was > 20 µM (not active) and the EC50 [7] was > 20 µM (not active).

With `CCCCCCCC/C=C\CCCCCCCC(=O)O` [OLEIC ACID] the EC50 [8] was 10.4 µM (active), the GI50 (SN12K1) was 101 µM (inactive) and the GI50 (P388/ADR) was 78.9 µM (inactive). The GI50 (P388) was 115 µM (inactive).

In the case of `CC1=CC(C)(C)Nc2ccc(OC(=O)c3ccco3)cc21`, the IC50 [9] is reported as 44.7 µM (inactive), the EC50 [10] is reported as 7.39 µM (active) and the EC50 [11] is reported as 5.59 µM (active). The EC50 [6] was 6.79 µM (active) and the EC50 [7] was 7.05 µM (active).

With `O=C(Nc1cccnc1Cl)c1cc(-c2cccc(O)c2)on1` the IC50 [12] was 8.84 µM (active) and the IC50 [13] was > 66.6 µM (inactive).

With `CC(c1nccs1)N(C)C(=O)CCc1nnc(Cc2c[nH]c3ccccc23)o1` (stereo not drawn) the EC50 [14] was > 67.5 µM (inactive) and the IC50 [15] was > 67.5 µM (inactive).

In the case of `CSC(=Nc1ccccc1)N=C(SCc1ccccc1)N(C)C`, the EC50 [16] is reported as > 92.4 µM (inactive), the IC50 [17] is reported as 3.95 µM (active) and the IC50 (Fatty acid synthase [18]) is reported as 1.37 µM (active). The EC50 (Mu-type opioid receptor) was > 92.4 µM (inactive), the IC50 (Fatty acid synthase [19]) was 1.04 µM (active) and the IC50 [20] was 2.61 µM (active). The AC50 (Paired box protein Pax-8) was 4.55 µM (active) and the EC50 [21] was > 92.4 µM (inactive).

In the case of `COc1ccc(-c2cn3cccnc3n2)cc1NC(=O)CC(C)C`, the Ki (fMet-Leu-Phe receptor) is reported as > 66.7 µM (inactive).

For `CCOC(=O)c1ccc(NC(=O)c2c(N)n(Cc3ccccc3)c(=O)[nH]c2=O)cc1`, the IC50 [12] was 1.43 µM (active) and the IC50 [13] was > 66.6 µM (inactive).

With `OCCN1CCN(c2nc(-c3ccccc3)nc3c2oc2ccccc23)CC1` the EC50 [6] was 10.2 µM (active) and the EC50 [7] was 7.2 µM (active).

In the case of `COc1ccc(-c2cc(C(F)(F)F)nc(SCC(=O)NCc3cnn(C)c3C)n2)cc1OC`, the EC50 [22] is reported as 16.3 µM (not active).

For `CCOC(=O)Cc1csc(NC(=S)NC(=O)c2ccc(Cl)cc2)n1`, the EC50 [8] was 0.55 µM (active) and the IC50 [9] was > 80 µM (inactive).

With `CCCOc1ccc(C2C(C(=O)c3ccco3)=C(O)C(=O)N2CCCn2ccnc2)cc1` (stereo not drawn) the Ki (fMet-Leu-Phe receptor) was > 66.7 µM (inactive).

With `Cc1ccc(CNC(=O)C(Cc2ccccc2)NS(=O)(=O)c2cccs2)cc1` (stereo not drawn) the AC50 [1] was 58 µM (active).

For `CCCN(CCC)C(S)=Nc1cc(C(=O)OC)ccc1C(=O)OC`, the EC50 (cells [23]) was > 350 µM (not active), the EC50 (cells [24]) was > 350 µM (not active) and the EC50 [22] was 343 µM (not active).
